Reference: article PMC3509069, “A DKP Cyclo(L-Phe-L-Phe) Found in Chicken Essence Is a Dual Inhibitor of the Serotonin Transporter and Acetylcholinesterase” (PLoS ONE, 2012)

Biological target: T1, acetylcholinesterase (AChE) (Homo sapiens, UniProt P22303)
T1 construct: amphiphilic form from human erythrocytes
Experiment: colorimetric AChE assay with MATP+ substrate
Assay type: biochemical

T1 sequence (P22303 other isoform, or with tags, fused parts or gaps): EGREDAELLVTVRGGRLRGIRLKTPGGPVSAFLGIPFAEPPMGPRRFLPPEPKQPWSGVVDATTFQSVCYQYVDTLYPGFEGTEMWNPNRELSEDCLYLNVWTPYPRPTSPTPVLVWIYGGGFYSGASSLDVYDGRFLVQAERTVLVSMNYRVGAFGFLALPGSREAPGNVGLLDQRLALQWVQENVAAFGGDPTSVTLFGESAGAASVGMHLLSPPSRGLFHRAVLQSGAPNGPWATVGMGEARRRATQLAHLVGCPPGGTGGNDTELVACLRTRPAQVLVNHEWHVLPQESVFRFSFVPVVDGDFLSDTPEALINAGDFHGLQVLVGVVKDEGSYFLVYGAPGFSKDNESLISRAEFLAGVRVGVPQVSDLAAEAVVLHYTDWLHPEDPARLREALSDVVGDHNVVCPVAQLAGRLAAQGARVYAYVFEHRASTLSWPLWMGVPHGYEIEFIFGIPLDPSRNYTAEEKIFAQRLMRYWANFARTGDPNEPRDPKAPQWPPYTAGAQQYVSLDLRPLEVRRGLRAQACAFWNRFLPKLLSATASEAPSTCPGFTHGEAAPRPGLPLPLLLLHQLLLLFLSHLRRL

O=C1NC(Cc2ccccc2)C(=O)NC1Cc1ccccc1 [cyclo(L-Phe-L-Phe)]
IC50: ~3.4 µM

O=C1[C@@H]2CCCN2C(=O)[C@@H]2CCCN12 [cyclo(L-Pro-L-Pro)]
IC50: 160 µM
